Experimental data published in PMC4621896 (Oncotarget, 2015).
Where two headings read alike, the source gives them in different places.

Legend:
[1] = biological target: YopH from Yersinia enterocolitica (Yersinia enterocolitica, UniProt P15273); experiment: biochemical
[2] = biological target: YopH protein tyrosine phosphatase from Yersinia pestis (Yersinia pestis, UniProt O68720); experiment: biochemical
[3] = biological target: YopH Y. enterocolitica (Yersinia enterocolitica, UniProt P15273); assay type: biochemical
YopH Y. enterocolitica, sequence (P15273 whole entry, looked up): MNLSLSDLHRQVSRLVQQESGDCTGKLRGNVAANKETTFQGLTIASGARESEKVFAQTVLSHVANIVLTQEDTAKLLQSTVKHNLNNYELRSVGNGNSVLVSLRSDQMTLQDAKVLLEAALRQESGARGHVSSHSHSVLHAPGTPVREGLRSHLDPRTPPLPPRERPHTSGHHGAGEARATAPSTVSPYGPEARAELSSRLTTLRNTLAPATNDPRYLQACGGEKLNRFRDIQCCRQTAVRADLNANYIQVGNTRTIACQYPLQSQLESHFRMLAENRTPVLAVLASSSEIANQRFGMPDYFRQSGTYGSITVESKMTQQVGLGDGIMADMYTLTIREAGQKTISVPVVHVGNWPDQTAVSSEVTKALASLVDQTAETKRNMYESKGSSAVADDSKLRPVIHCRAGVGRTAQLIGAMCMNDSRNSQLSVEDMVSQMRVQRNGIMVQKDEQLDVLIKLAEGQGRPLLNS

[4] = biological target: T1, YopH (Yersinia enterocolitica, UniProt P15273); assay type: biochemical
T1 sequence (P15273 whole entry, looked up): as above

[5] = biological target: T2, Human recombinant CD45 (Homo sapiens, UniProt P08575); experiment: biochemical
T2 construct: purchased Sigma-Aldrich
T2 sequence (P08575 609-1306 limits assumed): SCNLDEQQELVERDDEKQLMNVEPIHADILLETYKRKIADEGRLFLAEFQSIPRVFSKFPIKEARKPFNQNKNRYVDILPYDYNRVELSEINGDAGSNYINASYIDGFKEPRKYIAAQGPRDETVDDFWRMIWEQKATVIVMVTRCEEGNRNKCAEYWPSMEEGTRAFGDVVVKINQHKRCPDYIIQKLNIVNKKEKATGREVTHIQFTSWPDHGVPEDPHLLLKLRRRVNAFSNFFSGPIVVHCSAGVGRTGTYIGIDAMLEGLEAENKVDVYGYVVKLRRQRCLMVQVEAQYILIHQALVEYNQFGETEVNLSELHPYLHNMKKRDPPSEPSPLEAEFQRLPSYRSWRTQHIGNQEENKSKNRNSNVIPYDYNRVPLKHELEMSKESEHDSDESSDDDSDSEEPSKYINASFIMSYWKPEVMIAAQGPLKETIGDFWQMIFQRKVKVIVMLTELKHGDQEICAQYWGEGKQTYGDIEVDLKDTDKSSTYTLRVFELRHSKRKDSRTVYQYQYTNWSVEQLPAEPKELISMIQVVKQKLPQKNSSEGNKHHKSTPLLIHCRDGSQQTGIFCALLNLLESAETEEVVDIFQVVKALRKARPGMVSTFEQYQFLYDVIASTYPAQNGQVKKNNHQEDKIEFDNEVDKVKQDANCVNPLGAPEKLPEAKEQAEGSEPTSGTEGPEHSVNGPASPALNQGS

[6] = biological target: T1, YopH; assay type: biochemical; remark: listed apart in the source

YopH protein tyrosine phosphatase from Yersinia pestis, sequence (O68720 1-468): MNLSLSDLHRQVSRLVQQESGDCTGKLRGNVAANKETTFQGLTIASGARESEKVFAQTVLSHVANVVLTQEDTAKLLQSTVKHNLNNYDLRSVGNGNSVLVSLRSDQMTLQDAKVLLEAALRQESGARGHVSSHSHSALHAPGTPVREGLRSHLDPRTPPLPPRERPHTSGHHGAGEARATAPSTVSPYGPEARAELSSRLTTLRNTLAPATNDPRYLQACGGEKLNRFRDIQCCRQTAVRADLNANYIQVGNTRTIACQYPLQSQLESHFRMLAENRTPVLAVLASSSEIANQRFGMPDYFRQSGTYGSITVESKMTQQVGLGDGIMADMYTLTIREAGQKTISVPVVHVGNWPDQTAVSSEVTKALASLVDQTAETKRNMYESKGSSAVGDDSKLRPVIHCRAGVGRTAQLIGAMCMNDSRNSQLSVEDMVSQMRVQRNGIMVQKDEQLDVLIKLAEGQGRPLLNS
YopH from Yersinia enterocolitica, sequence (P15273 whole entry, looked up): as the sequence (P15273 whole entry, looked up) above

Compound | IC50 [1] | IC50 [2] | Reversibility of ATA induced inhibition of YopH [3] | Effect of catalase pretreatment on ATA induced YopH inactivation [4] | Effect of catalase pretreatment on ATA induced CD45 inactivation [5] | IC50 [5] | Effect of catalase on ATA induced decrease of thiol adducts [6] | Reduction of thiol-NBD adducts compared to control [6] | IC50 ([1]; read-out: IC50 value, YopH Y.entorocolitica inhibition) | IC50 ([2]; read-out: IC50 value, YopH Y.pestis inhibition) | IC50 ([5]; read-out: IC50 value, CD45 inhibition)
O=C(O)C1=CC(=C(c2ccc(O)c(C(=O)O)c2)c2ccc(O)c(C(=O)O)c2)C=CC1=O [ATA, aurintricarboxylic acid] | 0.1 µM | 0.01 µM | completely reversed | almost completely protected | almost completely protected | 0.2 µM | completely prevented | over 50% |  |  | 
CCCCCCCC(=O)OO [peroctanoic acid] |  |  |  |  |  |  |  |  | 0.039 µM | 0.041 µM | 0.025 µM
